Experimental data from patent publication US12552773B2, “Compound for specifically enhancing spatial coupling degree of TRPV4-KCa2.3 complex and use thereof” (Jiangnan University, priority 2020, dated 2026).

Experiments:
[1] = In vitro metabolism in liver microsomes, human; format: in vitro ADME; settings: for half-life at 0.193 µM: human, liver microsomes, pH 7.4, human liver microsomes, read-out: Half-life obtained after incubation in liver microsomes of human (converted); for In vivo inherent clearance rate: from human liver microsomes; for microsomal CLint at 0.193 µM: pH 7.4, read-out: Inherent clearance rate in liver microsomes
Description: (§1) An in vitro metabolic incubation system with a total volume of 207 μL and an organic solvent less than 1% included 188 μL of a 0.1 mol/L PBS buffer (pH 7.4) and 12 μL of an NADPH generation system (prepared by mixing 10 μL of a solution A and 2 μL of a solution B on an ice bath before use). 2 μL of the compounds in Examples 4 and 5 with a concentration of 20 μm/L were added into the incubation system on an ice bath for pre-incubation in a water bath at 37° C. for 5 minutes. Then, 5 μL of liver microsomal enzymes of different species were added on an ice bath for uniform mixing and incubation in a water bath at 37° C. 400 μl of glacial acetonitrile (containing 50 ng/ml of an internal standard (caffeine)) was separately added at 0 minute, 10 minutes, 30 minutes, 60 minutes, 90 minutes, 120 minutes, 180 minutes, 360 minutes and 480 minutes to stop a reaction, and a parallel experiment was carried out 3 times. A rotation speed was 13,000 rpm/15 min. A supernatant was taken and detected by using an ultra-high performance liquid chromatography-quadrupole time-of-flight mass spectrometer.

TRPV4-KCa2.3 complex = target: T1, TRPV4-KCa2.3 complex (Mus musculus, UniProt P58391+Q9EPK8); experiment: In vitro coupling activity test (FRET, immunostained endothelial cells); format: cell-based, mice; settings: for Fret efficiency value (average value): endothelial cells, 10 μmol/L, 24 hours, higher value = higher degree of coupling; for coupling between the TRPV4 and the KCa2.3: high-salt state, cells incubated 24 hours, compared with JNC-440
T1 construct: endogenous in cells
Description: Endothelial cells were cultured for 3-5 days, separately incubated with the compounds in Examples 1, 2, 3, 4, 5 and 6 with a concentration of 10 μmol/L for 24 hours, fixed with 4% paraformaldehyde for 30 minutes, permeabilized with PBS containing 0.2% Triton X-100 for 10 minutes and blocked with PBS containing 5% BSA for 1 hour. Then, the cells were sequentially stained with TRPV4-550 as a primary antibody, KCa2.3 as a coupled secondary antibody (Life Technologies) and DAPI (Vector Laboratories, Burlingame, CA, USA). A laser confocal microscope was used for photographing, and a Fret value was calculated.
A higher value indicated a higher degree of coupling between the two proteins.
With reference to FIG. 3, the compound obtained in Example 1 was abbreviated as compound 365; the compound obtained in Example 2 was abbreviated as compound 366; the compound obtained in Example 3 was abbreviated as compound 491; the compound obtained in Example 4 was abbreviated as compound 437; the compound obtained in Example 5 was abbreviated as compound 455; and the compound obtained in Example 6 was abbreviated as compound 469. HS referred to hypertensive mice induced by a high-salt diet, and WT referred to normal wild-type mice.

[2] = test system: hypertensive mice induced by a high-salt diet; experiment: Effects on blood pressure of hypertensive mice in vivo (tail-cuff); settings: intragastric, 30 mg/kg; for Mean arterial pressure change value: maximum drop of the blood pressure
Description: The blood pressure of mice was determined by using an IITC non-invasive sphygmomanometer and a tail-cuff method. At first, the mice were trained every day for at least a week with half an hour each time. During each test, a systolic blood pressure value, a diastolic blood pressure value, a mean arterial pressure value and a heart rate could be obtained. After adaption, the mice were administered intragastrically with the compounds in Examples 4 and 5 with a dosage of 30 mg/kg, and then the blood pressure of the hypertensive mice was measured within a regular time. According to results, it was shown that after the compound in Example 4 was used, the blood pressure was reduced for only 1.5 h; and after the compound in Example 5 was used, the blood pressure could be reduced for 8 h.
(§2) According to a line chart in FIG. 4, the abscissa referred to time with h as the unit; and the ordinate referred to systolic blood pressure (SBP), mean arterial pressure (MAP) and diastolic blood pressure (DBP) with mmHg as the unit. […] According to a histogram, the ordinate referred to changes of the mean arterial pressure with mmHg as the unit. […] HS referred to the hypertensive mice induced by a high-salt diet (model mice used in in vivo experiments in this example). WT referred to normal wild-type mice. A control group Ctrl referred to model mice administered intragastrically with normal saline rather than the compounds involved in this application.
as §2, with “5,” for “4,”

[3] = In vitro metabolism in liver microsomes, mouse; format: in vitro ADME; settings: for In vivo inherent clearance rate: from mouse liver microsomes; for half-life at 0.193 µM: mouse, liver microsomes, pH 7.4, mouse liver microsomes; for microsomal CLint at 0.193 µM: pH 7.4, read-out: Inherent clearance rate in liver microsomes
Description: as §1

[4] = test system: Mesenteric primary endothelial cells; experiment: Determination of intracellular K+ (PBFI fluorescence ratio); format: cell-based; settings: high-salt state, 10 μmol/L, 24 hours, versus no drug
Description: Mesenteric primary endothelial cells were cultured for 3-5 days and separately incubated with the compounds in Examples 4, 5 and 6 with a concentration of 10 μmol/L for 24 hours. A culture medium was removed. The cells and NPSS containing PBFI were incubated in an incubator at a ratio of 1:200 at 37° C. in a dark environment.
An Olympus fluorescence imaging system was used for measuring fluorescence with dual excitation at 340 nm and 380 nm. Changes of [K^+] were calculated as changes of a PBFI ratio.

[5] = In vitro metabolism in liver microsomes of different species (overall statement); format: in vitro ADME; settings: for metabolism differences between species: liver microsomes of different species; for half-life at 0.193 µM: mouse, rat, human, dog (Example 4), human (Example 5), liver microsomes, pH 7.4, liver microsomes, overall over the species
Description: as §1

[6] = In vitro metabolism in liver microsomes, rat; format: in vitro ADME
Description: as §1

[7] = In vitro metabolism in liver microsomes, dog; format: in vitro ADME
Description: as §1

T1 sequence (Q9EPK8 whole entry): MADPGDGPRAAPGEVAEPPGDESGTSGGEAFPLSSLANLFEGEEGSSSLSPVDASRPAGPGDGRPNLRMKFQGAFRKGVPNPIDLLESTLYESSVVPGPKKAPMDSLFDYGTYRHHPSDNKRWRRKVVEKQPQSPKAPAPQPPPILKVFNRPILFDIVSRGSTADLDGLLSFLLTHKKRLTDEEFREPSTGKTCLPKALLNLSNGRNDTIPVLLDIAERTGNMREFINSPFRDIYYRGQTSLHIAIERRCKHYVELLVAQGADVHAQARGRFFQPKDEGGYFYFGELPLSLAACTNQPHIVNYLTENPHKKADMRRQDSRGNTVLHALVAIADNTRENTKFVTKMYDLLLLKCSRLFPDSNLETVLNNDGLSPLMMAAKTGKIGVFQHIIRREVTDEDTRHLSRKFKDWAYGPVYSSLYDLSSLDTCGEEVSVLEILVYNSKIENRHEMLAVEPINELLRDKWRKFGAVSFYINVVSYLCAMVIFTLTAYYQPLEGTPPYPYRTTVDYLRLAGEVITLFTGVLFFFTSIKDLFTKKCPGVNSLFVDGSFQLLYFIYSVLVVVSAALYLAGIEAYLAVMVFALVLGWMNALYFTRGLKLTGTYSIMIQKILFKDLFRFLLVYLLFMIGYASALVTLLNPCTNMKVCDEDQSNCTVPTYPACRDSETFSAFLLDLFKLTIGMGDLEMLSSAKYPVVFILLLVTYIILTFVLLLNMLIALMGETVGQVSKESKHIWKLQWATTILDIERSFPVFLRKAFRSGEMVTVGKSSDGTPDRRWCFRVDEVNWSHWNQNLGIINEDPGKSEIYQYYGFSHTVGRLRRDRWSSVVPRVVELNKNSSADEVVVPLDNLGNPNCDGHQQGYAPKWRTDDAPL
T1 sequence (P58391 whole entry): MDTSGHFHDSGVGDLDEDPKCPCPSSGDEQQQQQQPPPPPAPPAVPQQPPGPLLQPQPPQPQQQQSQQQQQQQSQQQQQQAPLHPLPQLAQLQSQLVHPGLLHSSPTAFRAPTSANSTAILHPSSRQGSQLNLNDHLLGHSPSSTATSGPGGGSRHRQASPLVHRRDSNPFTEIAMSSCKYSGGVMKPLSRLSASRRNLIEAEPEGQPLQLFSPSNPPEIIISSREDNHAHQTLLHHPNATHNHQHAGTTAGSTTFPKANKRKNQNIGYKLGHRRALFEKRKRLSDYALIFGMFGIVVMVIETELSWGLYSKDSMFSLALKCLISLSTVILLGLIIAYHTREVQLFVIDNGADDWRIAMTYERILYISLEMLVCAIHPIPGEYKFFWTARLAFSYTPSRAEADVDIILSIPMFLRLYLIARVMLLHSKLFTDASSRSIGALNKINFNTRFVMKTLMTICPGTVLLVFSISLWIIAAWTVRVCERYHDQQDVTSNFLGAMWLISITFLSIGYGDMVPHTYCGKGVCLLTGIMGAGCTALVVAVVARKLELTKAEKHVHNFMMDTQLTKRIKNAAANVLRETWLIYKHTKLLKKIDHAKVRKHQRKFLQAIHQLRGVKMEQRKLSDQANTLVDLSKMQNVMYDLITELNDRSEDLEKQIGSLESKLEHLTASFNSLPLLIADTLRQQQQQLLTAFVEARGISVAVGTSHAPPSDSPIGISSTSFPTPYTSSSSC

O=C(NCCCNC(=O)C(c1ccccc1)c1ccccc1)c1nc(=O)c2ccccc2[nH]1 [JNC-440, reference compound]
half-life at 0.193 µM ([1]; 37° C., NADPH): 0.813 h | Fret efficiency value (average value) (TRPV4-KCa2.3 complex): 5.02 | Mean arterial pressure change value [2]: 10 mmHg

O=C(Cc1ccncc1)NCCCNC(=O)c1nc(=O)c2ccccc2[nH]1 [Example 1, 4-oxo-N-(3-(2-(pyridin-4-yl)acetamido)propyl)-1,4-dihydroquinazoline-2-carboxamide]
Fret efficiency value (average value) (TRPV4-KCa2.3 complex): 6.06 | coupling between the TRPV4 and the KCa2.3 (TRPV4-KCa2.3 complex): enhanced

CCN1CCN(Cc2ccc(NC(=O)NCCCCC(=O)Nc3ccc(F)cc3)cc2)CC1 [Example 5, 5-(3-(4-((4-ethylpiperazin-1-yl)methyl)phenyl)ureido)-N-(4-fluorophenyl)pentaneamide]
In vivo inherent clearance rate [3]: 7.065 ml · ^1min · kg^−1 | Half-life in liver microsomes ([3]; mouse liver microsomes): 3.35 h | half-life at 0.193 µM [3]: 4.23 h | microsomal CLint at 0.193 µM ([3]; mouse liver microsomes): 7.1 µL/min/mg | outflow ability of the intracellular potassium ions (changes of [K+]) [4]: significantly improved | In vivo inherent clearance rate [1]: 22.326 ml · ^1min · kg^−1 | Half-life obtained after incubation in liver microsomes of human ([1]; human liver microsomes, 37° C., NADPH): 4.23 h | half-life at 0.193 µM ([1]; 37° C., NADPH): 3.35 h | microsomal CLint at 0.193 µM ([1]; human liver microsomes): 5.7 µL/min/mg | Fret efficiency value (average value) (TRPV4-KCa2.3 complex): 7.68 | coupling between the TRPV4 and the KCa2.3 (TRPV4-KCa2.3 complex): enhanced | metabolism differences between species [5]: no metabolism differences between species | half-life at 0.193 µM [5]: 4 ± 0.5 h | time for which the blood pressure was reduced [2]: 8 h | Mean arterial pressure change value [2]: 38 mmHg

O=C(NCCCNC(=O)c1nc(=O)c2ccccc2[nH]1)Nc1ccncc1 [Example 2, 4-oxo-N-(3-(3-(pyridin-4-yl)ureido)propyl)-1,4-dihydroquinazoline-2-carboxamide]
Fret efficiency value (average value) (TRPV4-KCa2.3 complex): 5.98 | coupling between the TRPV4 and the KCa2.3 (TRPV4-KCa2.3 complex): enhanced

CCN1CCN(Cc2ccc(NC(=O)NCCCCC(=O)Nc3ccccc3)cc2)CC1 [Example 4, 5-(3-(4-((4-ethylpiperazin-1-yl)methyl)phenyl)ureido)-N-phenylpentaneamide]
In vivo inherent clearance rate [3]: 40.21 ml · ^1min · kg^−1 | half-life at 0.193 µM [3]: 2.34 h | microsomal CLint at 0.193 µM ([3]; mouse liver microsomes): 10 µL/min/mg | outflow ability of the intracellular potassium ions (changes of [K+]) [4]: significantly improved | In vivo inherent clearance rate ([6]; from rat liver microsomes): 15.07 ml · ^1min · kg^−1 | half-life at 0.193 µM ([6]; pH 7.4, rat liver microsomes): 2.85 h | microsomal CLint at 0.193 µM ([6]; pH 7.4, rat liver microsomes, read-out: Inherent clearance rate in liver microsomes): 8.4 µL/min/mg | In vivo inherent clearance rate [1]: 9.43 ml · ^1min · kg^−1 | half-life at 0.193 µM ([1]; 37° C., NADPH): 2.44 h | microsomal CLint at 0.193 µM ([1]; human liver microsomes): 9.5 µL/min/mg | Fret efficiency value (average value) (TRPV4-KCa2.3 complex): 8.15 | coupling between the TRPV4 and the KCa2.3 (TRPV4-KCa2.3 complex): enhanced | metabolism differences between species [5]: no metabolism differences between species | half-life at 0.193 µM [5]: ~2.5 h | In vivo inherent clearance rate ([7]; from dog liver microsomes): 15.91 ml · ^1min · kg^−1 | half-life at 0.193 µM ([7]; pH 7.4, dog liver microsomes): 2.23 h | microsomal CLint at 0.193 µM ([7]; pH 7.4, dog liver microsomes, read-out: Inherent clearance rate in liver microsomes): 11 µL/min/mg | time for which the blood pressure was reduced [2]: 1.5 h | Mean arterial pressure change value [2]: 16 mmHg

CCN1CCN(Cc2ccc(NC(=O)NCCCCCNC(=O)c3ccc(F)cc3)cc2)CC1 [Example 6]
outflow ability of the intracellular potassium ions (changes of [K+]) [4]: significantly improved | Fret efficiency value (average value) (TRPV4-KCa2.3 complex): 7.98 | coupling between the TRPV4 and the KCa2.3 (TRPV4-KCa2.3 complex): enhanced

CCN1CCN(Cc2ccc(NC(=O)NCCCNC(=O)c3nc(=O)c4ccccc4[nH]3)cc2)CC1 [Example 3]
Fret efficiency value (average value) (TRPV4-KCa2.3 complex): 5.62 | coupling between the TRPV4 and the KCa2.3 (TRPV4-KCa2.3 complex): enhanced
